Test results as given in patent US12077503B2, “Substituted cyclic amides and their use as herbicides” (FMC CORPORATION, priority 2015, dated 2024).

Legend:
Format in all cases: in vivo
[1] = system: barnyardgrass (Echinochloa crus-galli); test: Test G Post-Emergence Protocol; settings: Echinochloa crus-galli, post-emergence, 312 h, read-out: Barnyardgrass damage rating; for pest or weed control at 15.625 g/ha: 15.625 g ai/ha, evaluated after 13 days (100=total damage to plant; 0=no damage to plant); for pest or weed control at 62.5 g/ha: 62.5 g ai/ha; for pest or weed control at 62.5 g/ha / pest or weed control at 250 g/ha: evaluated after 13 days, 100=total damage to plant, 0=no damage to plant; for pest or weed control at 250 g/ha: 250 g ai/ha
Summary of the method: (§1)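 Scores run 0 (no damage) to 100 (total damage) and were taken 13 days after spraying. Plants had been raised in pots for 8 days under glasshouse control (24/16 °C, 14 h photoperiod, 65% humidity) and then treated at 15.625, 62.5 or 250 g/ha.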

[2] = system: giant foxtail (Setaria faberi); test: Test G Post-Emergence Protocol; settings: Setaria faberi, post-emergence, 312 h, read-out: Foxtail, Giant damage rating; for pest or weed control at 15.625 g/ha: 15.625 g ai/ha, evaluated after 13 days (100=total damage to plant; 0=no damage to plant); for pest or weed control at 62.5 g/ha: 62.5 g ai/ha; for pest or weed control at 62.5 g/ha / pest or weed control at 250 g/ha: evaluated after 13 days, 100=total damage to plant, 0=no damage to plant; for pest or weed control at 250 g/ha: 250 g ai/ha
Summary of the method: as §1

corn (Zea mays) [3] = test: Test G Post-Emergence Protocol; settings: Zea mays, post-emergence, 312 h, read-out: Corn damage rating; for plant injury at 15.625 g/ha: 15.625 g ai/ha, evaluated after 13 days (100=total damage to plant; 0=no damage to plant); for plant injury at 62.5 g/ha: 62.5 g ai/ha; for plant injury at 62.5 g/ha / plant injury at 250 g/ha: evaluated after 13 days, 100=total damage to plant, 0=no damage to plant; for plant injury at 250 g/ha: 250 g ai/ha
Summary of the method: as §1

[4] = system: velvetleaf (Abutilon theophrasti); test: Test G Post-Emergence Protocol; settings: for pest or weed control at 15.625 g/ha: 15.625 g ai/ha, evaluated after 13 days (100=total damage to plant; 0=no damage to plant); for pest or weed control at 250 g/ha: 250 g ai/ha
Summary of the method: as §1

[5] = system: ivy-leaved morning glory (Ipomoea hederacea); test: Test G Post-Emergence Protocol; settings: for pest or weed control at 62.5 g/ha: 62.5 g ai/ha; for pest or weed control at 62.5 g/ha / pest or weed control at 250 g/ha: evaluated after 13 days, 100=total damage to plant, 0=no damage to plant; for pest or weed control at 250 g/ha: 250 g ai/ha
Summary of the method: as §1

[6] = system: redroot pigweed (Amaranthus retroflexus); test: Test G Post-Emergence Protocol; settings: Amaranthus retroflexus, post-emergence, 312 h, read-out: Pigweed, Redroot damage rating; for pest or weed control at 15.625 g/ha: 15.625 g ai/ha, evaluated after 13 days (100=total damage to plant; 0=no damage to plant); for pest or weed control at 62.5 g/ha: 62.5 g ai/ha; for pest or weed control at 62.5 g/ha / pest or weed control at 250 g/ha: evaluated after 13 days, 100=total damage to plant, 0=no damage to plant; for pest or weed control at 250 g/ha: 250 g ai/ha
Summary of the method: as §1

[7] = system: barnyardgrass (Echinochloa crus-galli); test: Test G Pre-Emergence Protocol; settings: Echinochloa crus-galli, pre-emergence, 312 h, evaluated after 13 days; for pest or weed control at 15.625 g/ha: 15.625 g ai/ha; for pest or weed control at 15.625 g/ha / pest or weed control at 250 g/ha: read-out: Barnyardgrass damage rating (100=total damage to plant; 0=no damage to plant); for pest or weed control at 62.5 g/ha: 62.5 g ai/ha, 100=total damage to plant, 0=no damage to plant, read-out: Barnyardgrass damage rating; for pest or weed control at 250 g/ha: 250 g ai/ha
Summary of the method: (§2)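 Seeds were sown in standard soil and kept one day in a glasshouse (24/16° C day/night, 14 h light, 65% humidity), then sprayed with compound in acetone/water (50:50) containing 0.5% Tween 20 at 15.625, 62.5 or 250 g/ha. Damage was scored after 13 days (0 = none, 100 = total).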

[8] = system: giant foxtail (Setaria faberi); test: Test G Pre-Emergence Protocol; settings: Setaria faberi, pre-emergence, 312 h, evaluated after 13 days; for pest or weed control at 15.625 g/ha: 15.625 g ai/ha; for pest or weed control at 15.625 g/ha / pest or weed control at 250 g/ha: read-out: Foxtail, Giant damage rating (100=total damage to plant; 0=no damage to plant); for pest or weed control at 62.5 g/ha: 62.5 g ai/ha, 100=total damage to plant, 0=no damage to plant, read-out: Foxtail, Giant damage rating; for pest or weed control at 250 g/ha: 250 g ai/ha
Summary of the method: as §2

corn (Zea mays) [9] = test: Test G Pre-Emergence Protocol; settings: evaluated after 13 days; for plant injury at 62.5 g/ha: 62.5 g ai/ha, 100=total damage to plant, 0=no damage to plant, read-out: Corn damage rating; for plant injury at 250 g/ha: 250 g ai/ha
Summary of the method: as §2

[10] = system: velvetleaf (Abutilon theophrasti); test: Test G Pre-Emergence Protocol; settings: evaluated after 13 days; for pest or weed control at 62.5 g/ha: 62.5 g ai/ha, 100=total damage to plant, 0=no damage to plant, read-out: Velvetleaf damage rating; for pest or weed control at 250 g/ha: 250 g ai/ha
Summary of the method: as §2

[11] = system: ivy-leaved morning glory (Ipomoea hederacea); test: Test G Pre-Emergence Protocol; settings: evaluated after 13 days; for pest or weed control at 15.625 g/ha: 15.625 g ai/ha; for pest or weed control at 15.625 g/ha / pest or weed control at 250 g/ha: read-out: Morningglory, Ivy-leaved damage rating (100=total damage to plant; 0=no damage to plant); for pest or weed control at 250 g/ha: 250 g ai/ha
Summary of the method: as §2

[12] = system: redroot pigweed (Amaranthus retroflexus); test: Test G Pre-Emergence Protocol; settings: evaluated after 13 days; for pest or weed control at 15.625 g/ha: 15.625 g ai/ha; for pest or weed control at 62.5 g/ha: 62.5 g ai/ha, 100=total damage to plant, 0=no damage to plant, read-out: Pigweed, Redroot damage rating
Summary of the method: as §2

[13] = Abutilon theophrasti, post-emergence, 312 h, read-out: Velvetleaf damage rating
[14] = Abutilon theophrasti, post-emergence, 312 h, evaluated after 13 days, 100=total damage to plant, 0=no damage to plant, read-out: Velvetleaf damage rating
[15] = Ipomoea, post-emergence, 312 h, read-out: Morningglory, Ivy-leaved damage rating
[16] = Zea mays, pre-emergence, 312 h, read-out: Corn damage rating (100=total damage to plant; 0=no damage to plant)
[17] = Abutilon theophrasti, pre-emergence, 312 h
[18] = Abutilon theophrasti, pre-emergence, 312 h, read-out: Velvetleaf damage rating (100=total damage to plant; 0=no damage to plant)
[19] = Amaranthus retroflexus, pre-emergence, 312 h, read-out: Pigweed, Redroot damage rating (100=total damage to plant; 0=no damage to plant)
[20] = Amaranthus retroflexus, pre-emergence, 312 h

## COc1cc(C2CN(C)C(=O)C2C(=O)Nc2cccc(F)c2F)cc(Cl)c1F (stereo not drawn) [Compound 1705]
[1]
  pest or weed control at 15.625 g/ha: 20%
  pest or weed control at 62.5 g/ha: 30%
  pest or weed control at 250 g/ha: 80%
[2]
  pest or weed control at 15.625 g/ha: 70%
  pest or weed control at 62.5 g/ha: 70%
  pest or weed control at 250 g/ha: 80%
Corn (Zea mays) [3]
  plant injury at 15.625 g/ha: 10%
  plant injury at 62.5 g/ha: 0%
  plant injury at 250 g/ha: 70%
[4]; [13]
  pest or weed control at 15.625 g/ha: 0%
[4]; Abutilon theophrasti, post-emergence, 312 h, 62.5 g ai/ha, evaluated after 13 days, 100=total damage to plant, 0=no damage to plant, read-out: Velvetleaf damage rating
  pest or weed control at 62.5 g/ha: 0%
[4]; [14]
  pest or weed control at 250 g/ha: 10%
[5]; Ipomoea, post-emergence, 312 h, 15.625 g ai/ha, evaluated after 13 days (100=total damage to plant; 0=no damage to plant), read-out: Morningglory, Ivy-leaved damage rating
  pest or weed control at 15.625 g/ha: 0%
[5]; [15]
  pest or weed control at 62.5 g/ha: 20%
  pest or weed control at 250 g/ha: 50%
[6]
  pest or weed control at 15.625 g/ha: 0%
  pest or weed control at 62.5 g/ha: 0%
  pest or weed control at 250 g/ha: 30%
[7]
  pest or weed control at 15.625 g/ha: 20%
  pest or weed control at 62.5 g/ha: 60%
  pest or weed control at 250 g/ha: 70%
[8]
  pest or weed control at 15.625 g/ha: 50%
  pest or weed control at 62.5 g/ha: 70%
  pest or weed control at 250 g/ha: 80%
Corn (Zea mays) [9]; Zea mays, pre-emergence, 312 h, 15.625 g ai/ha, read-out: Corn damage rating (100=total damage to plant; 0=no damage to plant)
  plant injury at 15.625 g/ha: 0%
Corn (Zea mays) [9]; Zea mays, pre-emergence, 312 h
  plant injury at 62.5 g/ha: 10%
Corn (Zea mays) [9]; [16]
  plant injury at 250 g/ha: 70%
[10]; Abutilon theophrasti, pre-emergence, 312 h, 15.625 g ai/ha, read-out: Velvetleaf damage rating (100=total damage to plant; 0=no damage to plant)
  pest or weed control at 15.625 g/ha: 0%
[10]; [17]
  pest or weed control at 62.5 g/ha: 0%
[10]; [18]
  pest or weed control at 250 g/ha: 20%
[11]; Ipomoea, pre-emergence, 312 h
  pest or weed control at 15.625 g/ha: 0%
  pest or weed control at 250 g/ha: 10%
[11]; Ipomoea, pre-emergence, 312 h, 62.5 g ai/ha, 100=total damage to plant, 0=no damage to plant, read-out: Morningglory, Ivy-leaved damage rating
  pest or weed control at 62.5 g/ha: 0%
[12]; [19]
  pest or weed control at 15.625 g/ha: 0%
[12]; [20]
  pest or weed control at 62.5 g/ha: 0%
[12]; Amaranthus retroflexus, pre-emergence, 312 h, 250 g ai/ha, read-out: Pigweed, Redroot damage rating (100=total damage to plant; 0=no damage to plant)
  pest or weed control at 250 g/ha: 30%

## CN1C[C@H](c2cccc(C(F)(F)F)c2)[C@@H](C(=O)Nc2cccc(F)n2)C1=O (racemic) [Compound 1671]
[1]
  pest or weed control at 15.625 g/ha: 70%
  pest or weed control at 62.5 g/ha: 70%
  pest or weed control at 250 g/ha: 80%
[2]
  pest or weed control at 15.625 g/ha: 70%
  pest or weed control at 62.5 g/ha: 80%
  pest or weed control at 250 g/ha: 80%
Corn (Zea mays) [3]
  plant injury at 15.625 g/ha: 60%
  plant injury at 62.5 g/ha: 70%
  plant injury at 250 g/ha: 80%
[4]; 62.5 g ai/ha, evaluated after 13 days, 100=total damage to plant, 0=no damage to plant
  Velvetleaf damage rating: 10
[4]; [13]
  pest or weed control at 15.625 g/ha: 0%
[4]; [14]
  pest or weed control at 250 g/ha: 40%
[5]; 15.625 g ai/ha, evaluated after 13 days (100=total damage to plant; 0=no damage to plant)
  Morningglory, Ivy-leaved damage rating: 0
[5]; [15]
  pest or weed control at 62.5 g/ha: 70%
  pest or weed control at 250 g/ha: 50%
[6]
  pest or weed control at 15.625 g/ha: 10%
  pest or weed control at 62.5 g/ha: 30%
  pest or weed control at 250 g/ha: 50%
[7]
  pest or weed control at 15.625 g/ha: 70%
  pest or weed control at 62.5 g/ha: 90%
  pest or weed control at 250 g/ha: 90%
[8]
  pest or weed control at 15.625 g/ha: 80%
  pest or weed control at 62.5 g/ha: 90%
  pest or weed control at 250 g/ha: 90%
Corn (Zea mays) [9]; 15.625 g ai/ha
  Corn damage rating (100=total damage to plant; 0=no damage to plant): 30
Corn (Zea mays) [9]; Zea mays, pre-emergence, 312 h
  plant injury at 62.5 g/ha: 80%
Corn (Zea mays) [9]; [16]
  plant injury at 250 g/ha: 80%
[10]; 15.625 g ai/ha
  Velvetleaf damage rating (100=total damage to plant; 0=no damage to plant): 20
[10]; [17]
  pest or weed control at 62.5 g/ha: 30%
[10]; [18]
  pest or weed control at 250 g/ha: 60%
[11]; 62.5 g ai/ha, 100=total damage to plant, 0=no damage to plant
  Morningglory, Ivy-leaved damage rating: 20
[11]; Ipomoea, pre-emergence, 312 h
  pest or weed control at 15.625 g/ha: 10%
  pest or weed control at 250 g/ha: 70%
[12]; 250 g ai/ha
  Pigweed, Redroot damage rating (100=total damage to plant; 0=no damage to plant): 50
[12]; [19]
  pest or weed control at 15.625 g/ha: 0%
[12]; [20]
  pest or weed control at 62.5 g/ha: 30%
